# Measured values: patent publication US20250144107A1, “USE OF A PIKFYVE INHIBITOR IN COMBINATION WITH IMMUNOTHERAPY” (The Regents of the University of Michigan, priority 2023, published 2025)
# Columns and labels:
# [1] = tested on: cDCs co-cultured with OT-I and OT-II cells; experiment: cDC antigen presentation and OT-I/OT-II co-culture; type: cell-based, mice
# Description: FIG. 13T is a box and whisker plot of the percentage of IFNγ^+ OT-I cells after 72 hours of co-culture with DMSO or apilimod pre-treated cDCs with or without sOVA, 10 μg/ml.
# FIG. 13V is a box and whisker plot of the percentage of IFNγ^+ OT-II cells after 72 hours of co-culture with DMSO or apilimod pre-treated cDCs with or without sOVA, 10 μg/ml.
# FIG. 19G is a line graph (Left) and box and whisker plot (Right) of relative median fluorescent intensity of surface H-2kb-SIINFEKL in DMSO or apilimod-treated cDCs with or without 12 hours of pOVA, 100 ng/ml, treatment.
# FIG. 19H is a scatter plot (Left) and box and whisker plot (Right) of relative median fluorescent intensity of percent H2kb-SIINFEKL^+ cells in DMSO or apilimod-treated cDCs with or without 12 hours of pOVA, 100 ng/ml, treatment.
# FIG. 20D is a scatter plot (Left) and box and whisker plot (Right) of percentage of IFNγ^+ OT-I cells after 48 hours of co-culture with DMSO or apilimod pre-treated cDCs with or without pOVA, 100 ng/ml.
# FIG. 20E is a scatter plot (Left) and box and whisker plot (Right) of percentage of granzyme B^+ OT-I cells after 48 hours of co-culture with DMSO or apilimod pre-treated cDCs with or without pOVA, 100 ng/ml.
# FIG. 20H is a box and whisker plot of the percent of Ki67^+ OT-I cells after 72 hours of co-culture with DMSO or apilimod pre-treated cDCs with or without sOVA, 10 μg/ml.
# FIG. 20I is a box and whisker plot of the percent of Ki67^+ OT-II cells after 72 hours of co-culture with DMSO or apilimod pre-treated cDCs with or without sOVA, 10 μg/ml.
# subcutaneous MC38 tumors = experiment: Subcutaneous MC38 tumor model; type: in vivo, mice
# Description: FIG. 16A is a line graph of the subcutaneous tumor volume of MC38 tumors in mice treated with vehicle or apilimod, 30 mg/kg×5 days/week.
# FIG. 16B is a series of two scatter plots of the percent IFNγ^+ of CD8^+ T cells in vehicle or apilimod-treated MC38 tumors.
# FIG. 16C is a line graph of the subcutaneous tumor volume of MC38 tumors in mice treated with vehicle versus apilimod, 30 mg/kg×5 days/week, in wild-type or Batf3^−/− mice.
# FIG. 26A is a bar graph of the percent IFNγ^+ of CD8^+ T cells in vehicle or apilimod-treated, 30 mg/kg×5 days/week MC38 tumors.
# FIG. 26B is a line graph of the subcutaneous tumor volume of MC38 tumors treated with vehicle versus apilimod, 30 mg/kg×5 days/week, in NSG™ mice.
# FIG. 26C is a line graph of the subcutaneous tumor volume of MC38 tumors in mice treated with vehicle versus apilimod, 30 mg/kg×5 days/week, and additionally treated with IgG2a or αIL-12p40 blocking antibody.
# FIG. 26D is a line graph of the subcutaneous tumor volume of MC38 tumors in mice treated with vehicle versus apilimod, 30 mg/kg×5 days/week, and additionally treated with IgG1 or αIFNγ blocking antibody.
# B16F10-OVA tumors = experiment: B16F10-OVA tumor model with PolyI:C adjuvant; type: in vivo, mice
# Description: FIG. 16F is a series of four line graphs of the Individual growth curves of subcutaneous B16F10-OVA tumor volume following 21 days of pre-treatment with vehicle versus apilimod, 30 mg/kg daily, with or without subcutaneous injection of water versus PolyI:C, 100 μg on Day 1 and Day 14.
# FIG. 16H is a series of four line graphs of the Individual growth curves of subcutaneous B16F10-OVA tumor volume in mice treated with vehicle or apilimod, 30 mg/kg daily, with or without a subcutaneous injection of water versus PolyI:C, 100 μg once weekly.
# FIG. 26I is a line graph of the subcutaneous tumor volume of B16F10-OVA tumors following 21 days of pre-treatment with vehicle versus apilimod, 30 mg/kg×5 days/week, with or without subcutaneous injection of water versus PolyI:C, 100 μg on Day 1 and Day 14.
# FIG. 26J is a line graph of the subcutaneous tumor volume of B16F10-OVA tumors in mice treated with vehicle or apilimod, 30 mg/kg×5 days/week, with or without subcutaneous injection of water versus PolyI:C, 100 μg once weekly.
# [2] = Overall comparison across preclinical models; type: in vivo; settings: in many of models; dose of apilimod higher than ESK981
# Description: This could be, at least partially, explained by the reported instability of apilimod See, e.g., Ikonomov, O. C. et al., Toxicol. Appl. Pharmacol. 2019; 383:114771.
# [3] = reported, Ikonomov et al. 2019; cited from earlier work
compound,measurement,setting,value
"Cc1cccc(/C=N/Nc2cc(N3CCOCC3)nc(OCCc3ccccn3)n2)c1 [apilimod, N-[(E)-(3-methylphenyl)methylideneamino]-6-morpholin-4-yl-2-(2-pyridin-2-ylethoxy)pyrimidin-4-amine]",total intensity and percentage of cells with H2-kb-SIINFEKL surface expression,"[1]; pOVA, vs DMSO",greater
same,T cell activation (IFNγ+ and granzyme B+ OT-I cells),"[1]; peptide antigen-loaded cDCs, vs DMSO",increase
same,percentages of Ki67+ and IFNγ+ OT-I cells,"[1]; sOVA-loaded cDCs, vs DMSO",increases
same,percentages of Ki67+ and IFNγ+ OT-II cells,"[1]; sOVA-loaded cDCs, vs control",higher percentages
same,efficacy in Batf3−/− mice,subcutaneous MC38 tumors; Batf3−/− vs WT mice,loss of apilimod efficacy
same,percentage of intratumoral IFNγ+CD8+ T cells,subcutaneous MC38 tumors; WT mice,increased
same,MC38 tumor growth,"subcutaneous MC38 tumors; WT mice, 30 mg/kg x 5 days/week, vs vehicle",reduced
same,efficacy in NSG mice,subcutaneous MC38 tumors; immune-deficient NSG mice,lost
same,efficacy with neutralizing antibody against IFNγ,subcutaneous MC38 tumors; vs isotype control,reduced
same,efficacy with neutralizing antibody against IL-12,subcutaneous MC38 tumors; vs isotype control,reduced
same,subsequent tumor growth,"B16F10-OVA tumors; 21 days pre-treatment, combination of apilimod and PolyI:C, vs control or either agent alone",decrease
same,tumor growth inhibition,"B16F10-OVA tumors; treatment after inoculation, combination of apilimod and PolyI:C",further potentiated
same,tumor growth,"B16F10-OVA tumors; treatment after inoculation, each agent alone",modest tumor growth inhibition
same,efficacy relative to ESK981,[2],weaker than ESK981
same,stability,[3],instability
